Experimental data from article PMC8151276, “An Integrated Approach toward NanoBRET Tracers for Analysis of GPCR Ligand Engagement” (Molecules, 2021).

What was measured:
Assay type in all cases: binding
FZD4 = molecular target: T1, FZD4 (Homo sapiens, UniProt Q9ULV1); test: NanoBRET screen HiBiT-FZD4 in HEK293
T1 construct: purchased Promega (in-house HiBiT-GPCR construct library, NanoBRET)
T1 sequence (Q9ULV1 37-537): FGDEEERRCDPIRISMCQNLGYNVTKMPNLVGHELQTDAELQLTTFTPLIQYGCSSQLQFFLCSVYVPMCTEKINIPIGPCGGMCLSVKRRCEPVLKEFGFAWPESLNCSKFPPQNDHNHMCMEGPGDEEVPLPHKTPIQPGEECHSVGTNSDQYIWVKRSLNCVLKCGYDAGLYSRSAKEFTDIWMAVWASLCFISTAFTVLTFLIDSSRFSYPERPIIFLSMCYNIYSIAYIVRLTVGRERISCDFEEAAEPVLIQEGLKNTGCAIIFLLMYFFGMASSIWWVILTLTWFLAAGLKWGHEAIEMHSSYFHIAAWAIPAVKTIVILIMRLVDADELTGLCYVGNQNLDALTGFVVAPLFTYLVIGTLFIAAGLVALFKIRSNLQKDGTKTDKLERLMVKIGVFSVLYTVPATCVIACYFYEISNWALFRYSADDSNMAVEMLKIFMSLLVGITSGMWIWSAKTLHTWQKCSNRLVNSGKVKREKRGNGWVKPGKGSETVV
Description: (§1) Each tracer candidate was screened across the entire library of HiBiT-GPCR constructs using NanoBRET as the detection modality. As depicted in Figure 4A, the specificity of interactions was evaluated through decrease in BRET due to competitive displacement of a bound tracer by excess parental compound. Each tracer was analyzed for binding to each HiBiT-GPCR fusion in the absence and in the presence of competing parental compound. Briefly, HEK293 cells were transfected with HiBiT-GPCR constructs diluted into promoterless DNA to reduce expression and maximize translocation to the cell surface. Each tracer candidate was then screened at concentrations of 1 μM and 0.1 μM across cells expressing these fusions. Cells were treated for 1.5 h with tracer either alone or in the presence of 20 μM competing parental compound (i.e., control). BRET was measured upon addition of purified LgBiT and subsequent complementation with HiBiT genetically fused to a GPCR. The specificity of interactions was assessed through a decrease in BRET signal due to competitive displacement of the bound tracer. To further gauge the robustness of these interactions, the fold response over the control (i.e., BRETtracer/BRETcontrol) was calculated. We chose a 1.5-fold response, which translates to ≥7-fold signal over noise as the minimal threshold required to score an interaction as positive. […]. Below we highlight the screening results obtained for our exemplary fluorescent tracers based on Clozapine, Amitriptyline and AZD1283.
(§2) HiBiT-GPCR DNA constructs were diluted in 10 mM Tris pH 8 to a final concentration of 0.01 μg/μL, arrayed in 96-well plates and stored at −20 °C. For transfection, HEK293 cells were suspended in Opti-MEM (without phenol red) supplemented with 2% fetal bovine serum (Seradigm) and 100 units/mL penicillin–streptomycin (Gibco) at a final concentration of 220,000 cells/mL and dispensed into white 96-well plates at 90 μL/well. Subsequent transfections and screens were carried using an Agilent Bravo Automated Liquid Handling Platform. First, the 96-well HiBiT DNA arrays were diluted 25-fold in Opti-MEM (without serum or phenol red) to a final concentration of 0.0004 μg/μL and 20 μL of the diluted DNAs were transferred into new 96-well plates. Next, promoterless carrier DNA (1 μg/μL) was diluted 25-fold (0.04 μg/μL) and then dispensed into the diluted arrays at 20 μL/well. Following brief mixing, Viafect transfection reagent (Promega) diluted 16-fold into Opti-MEM was dispensed into the plates at 40 μL/well. After mixing by pipetting, plates were incubated for 10 min on the pipetting station deck. The DNA-transfection reagent complexes were then added to plates containing cells. To facilitate the screen, 10 μL of DNA-transfection reagent complexes were added in duplicates to the top 4 and bottom 4 rows, resulting in two identical 48-well arrays per plate. Plates with transfected cells were incubated for 18–20 h at 37 °C/5% CO2. A screen of each tracer across the entire library using two different concentrations requires duplicate plates of transfected cells. Depending on the number of tracers being screened, transfections can be scaled up using the same ratios. The next day, for each tracer, four 20× screening solutions in tracer dilution buffer (Promega) were prepared: two duplicates at final concentration of 20 μM and two duplicates at a final concentration of 2 μM. A competing unmodified compound was added to one of each duplicate at a final concentration of 400 μM. The four resulting solutions were diluted 4-fold in Opti-MEM without serum or phenol red to generate 5× solutions (5 µM and 0.5 µM tracer +/− 100 μM competing compound). To screen the library, a BioTek MultiFlo FX liquid dispenser was used to dispense 22.5 µL of tracer solution to the top 4 rows and 22.5 µL tracer + competing compound solution to the 4 bottom rows. Plates were briefly mixed on an orbital shaker and incubated for 1.5 h at room temperature. […]

NMUR2 = molecular target: T2, NMUR2 (Homo sapiens, UniProt Q9GZQ4); test: NanoBRET screen HiBiT-NMUR2 in HEK293
T2 construct: purchased Promega (in-house HiBiT-GPCR construct library, NanoBRET)
Description: as §1, §2

TACR2 = molecular target: T3, TACR2 (Homo sapiens, UniProt P21452); test: NanoBRET screen HiBiT-TACR2 in HEK293
T3 construct: purchased Promega (in-house HiBiT-GPCR construct library, NanoBRET)
T3 sequence (P21452 1-398): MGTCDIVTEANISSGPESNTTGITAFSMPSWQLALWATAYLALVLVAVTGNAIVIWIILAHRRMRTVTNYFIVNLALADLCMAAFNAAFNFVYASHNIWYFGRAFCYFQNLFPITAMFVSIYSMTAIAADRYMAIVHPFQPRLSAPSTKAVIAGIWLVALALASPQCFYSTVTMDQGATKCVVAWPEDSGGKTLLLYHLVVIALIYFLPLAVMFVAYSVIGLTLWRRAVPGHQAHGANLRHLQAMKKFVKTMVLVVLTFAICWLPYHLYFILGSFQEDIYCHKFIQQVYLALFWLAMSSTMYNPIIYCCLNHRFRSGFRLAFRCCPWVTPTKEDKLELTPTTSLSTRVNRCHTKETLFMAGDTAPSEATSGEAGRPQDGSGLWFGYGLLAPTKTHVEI
Description: as §1, §2

T2 sequence (Q9GZQ4 whole entry): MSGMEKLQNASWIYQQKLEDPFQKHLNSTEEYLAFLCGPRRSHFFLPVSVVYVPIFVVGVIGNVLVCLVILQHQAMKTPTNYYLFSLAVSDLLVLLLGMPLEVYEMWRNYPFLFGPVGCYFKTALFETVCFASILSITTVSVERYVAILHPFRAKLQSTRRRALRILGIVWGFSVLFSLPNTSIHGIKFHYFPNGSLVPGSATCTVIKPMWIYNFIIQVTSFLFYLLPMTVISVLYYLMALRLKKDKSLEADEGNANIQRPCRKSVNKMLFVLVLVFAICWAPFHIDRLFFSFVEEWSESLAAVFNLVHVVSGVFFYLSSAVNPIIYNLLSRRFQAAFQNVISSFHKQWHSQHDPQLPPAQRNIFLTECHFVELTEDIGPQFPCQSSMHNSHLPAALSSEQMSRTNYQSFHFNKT

Row | Structure (SMILES) | NanoBRET Fold Response (FZD4; FZD4, tracer 0.1μM) | NanoBRET Fold Response (FZD4; FZD4, tracer 1μM) | NanoBRET Fold Response (NMUR2; NMUR2, tracer 0.1μM) | NanoBRET Fold Response (NMUR2; NMUR2, tracer 1μM) | NanoBRET Fold Response (TACR2; TACR2, tracer 0.1μM) | NanoBRET Fold Response (TACR2; TACR2, tracer 1μM) | also measured
1 | N#CN=C(NCCCOc1cccc(CN2CCCCC2)c1)NCCNC(=O)CCOCCOCCOCCOCCNC(=O)CCc1ccc2n1[B-](F)(F)[N+]1=C(c3ccc[nH]3)C=CC1=C2 [Aminopotentidine-2-NB590] | 0.98 | 1.07 | 1.02 | 1.05 | 0.98 | 1.02 | 
2 | O=C(CCc1ccc2n1[B-](F)(F)[N+]1=C(c3ccc[nH]3)C=CC1=C2)NCc1ccc(C(=O)NCCOCCOCCNCC(O)COc2cccc3ccccc23)cc1 (stereo not drawn) [Propranolol-3-NB590] |  |  |  |  |  |  | NanoBRET Fold Response (FZD4; FZD4, 0.1μM): 1.09; NanoBRET Fold Response (FZD4; FZD4, 1μM): 1.07; NanoBRET Fold Response (NMUR2; NMUR2, 0.1μM): 1.06; NanoBRET Fold Response (NMUR2; NMUR2, 1μM): 1.08; NanoBRET Fold Response (TACR2; TACR2, 0.1μM): 1.01; NanoBRET Fold Response (TACR2; TACR2, 1μM): 1.01
3 | O=C(CCc1ccc2n1[B-](F)(F)[N+]1=C(c3ccc[nH]3)C=CC1=C2)NCc1ccc(C(=O)NCCOCCC(=O)N[C@@H]2CC[C@@]3(O)[C@H]4Cc5ccc(O)c6c5[C@@]3(CCN4CC3CC3)[C@H]2O6)cc1 [Naltrexone-3-NB590] | 0.89 | 1.14 | 0.78 | 0.84 | 0.82 | 0.91 | 
4 | COc1ccccc1N1CCN(CCCCN2C(=O)c3ccc(CNC(=O)CCOCCNC(=O)c4ccc(CNC(=O)CCc5ccc6n5[B-](F)(F)[N+]5=C(c7ccc[nH]7)C=CC5=C6)cc4)cc3C2=O)CC1 [NAN-190-3-NB590] | 1.03 | 1.38 | 1.04 | 0.75 | 1.12 | 1.09 | 
5 | Cc1cc2c(s1)Nc1ccccc1N=C2N1CCN(CCCNC(=O)CCOCCOCCOCCOCCNC(=O)CCc2ccc3n2[B-](F)(F)[N+]2=C(c4ccc[nH]4)C=CC2=C3)CC1 [Olanzapine-a-2-NB590] | 1.00 | 0.93 | 0.94 | 0.98 | 1.01 | 0.88 | 
6 | CCCn1c(=O)c2[nH]c(-c3ccc(OCC(=O)NCCNC(=O)CCOCCNC(=O)c4ccc(CNC(=O)CCc5ccc6n5[B-](F)(F)[N+]5=C(c7ccc[nH]7)C=CC5=C6)cc4)cc3)nc2n(CCC)c1=O [XAC-3-NB590] | 1.15 | 1.12 | 1.11 | 0.89 | 0.96 | 1.21 | 
7 | COc1ccc2c(n1)c(CCNC(C)=O)cn2CCNC(=O)CCc1ccc2n1[B-](F)(F)[N+]1=C(c3ccc[nH]3)C=CC1=C2 [Azamelatonin-1-NB590] |  |  |  |  |  |  | NanoBRET Fold Response (FZD4; 0.1μM tracer): 0.91; NanoBRET Fold Response (FZD4; 1μM tracer): 0.91; NanoBRET Fold Response (NMUR2; 0.1μM tracer): 1.00; NanoBRET Fold Response (NMUR2; 1μM tracer): 1.16; NanoBRET Fold Response (TACR2; 0.1μM tracer): 0.81; NanoBRET Fold Response (TACR2; 1μM tracer): 0.91
